In general, IC50 refers to the concentration at which inhibition is half-maximal. A high value points to lower potency.

In this assay the target is ATR-interacting protein/Serine/threonine-protein kinase ATR (Homo sapiens, UniProt Q13535). Description: ATR/ATRIP Kinase Assay. Here is the method: The ATR/ATRIP enzymatic assay is performed as a TR-FRET-(HTRF™, Cisbio Bioassays) based 384-well assay. In a first step, purified human recombinant ATR/ATRIP (human ATR, full length, GenBank ID: NM_001184.3, and human ATRIP, full length, GenBank ID AF451323.1, co-expressed in a mammalian cell line) is incubated in assay buffer for 15 minutes at 22° C. with test compound at different concentrations or without test compound (as a negative control). The assay buffer contains 25 mM HEPES pH 8.0, 10 mM Mg(CH3COO)2, 1 mM MnCl2, 0.1% BSA, 0.01% Brij 35, and 5 mM dithiothreitol (DTT). An Echo 555 (Labcyte) is used for dispensing of compound solutions. […] The generation of phosphorylated p53 as a result of the ATR mediated reaction in the presence of ATP is detected by using specific antibodies [labeled with the fluorophores europium (Eu) as donor and d2 as acceptor (Cisbio Bioassays)] enabling FRET. […] Following signal development for 2 h the plates are analyzed in an EnVision (PerkinElmer) microplate reader using the TRF mode with laser excitation. Upon excitation of the donor europium at 340 nm the emitted fluorescence light of the acceptor d2 at 665 nm as well as from the donor Eu at 615 nm are measured. The amount of phosphorylated p53 is directly proportional to the ratio of the amounts of emitted light i.e. the ratio of the relative fluorescence units (rfu) at 665 nm and 615 nm. […]
ATR-interacting protein/Serine/threonine-protein kinase ATR, sequence (Q8WXE1 whole entry): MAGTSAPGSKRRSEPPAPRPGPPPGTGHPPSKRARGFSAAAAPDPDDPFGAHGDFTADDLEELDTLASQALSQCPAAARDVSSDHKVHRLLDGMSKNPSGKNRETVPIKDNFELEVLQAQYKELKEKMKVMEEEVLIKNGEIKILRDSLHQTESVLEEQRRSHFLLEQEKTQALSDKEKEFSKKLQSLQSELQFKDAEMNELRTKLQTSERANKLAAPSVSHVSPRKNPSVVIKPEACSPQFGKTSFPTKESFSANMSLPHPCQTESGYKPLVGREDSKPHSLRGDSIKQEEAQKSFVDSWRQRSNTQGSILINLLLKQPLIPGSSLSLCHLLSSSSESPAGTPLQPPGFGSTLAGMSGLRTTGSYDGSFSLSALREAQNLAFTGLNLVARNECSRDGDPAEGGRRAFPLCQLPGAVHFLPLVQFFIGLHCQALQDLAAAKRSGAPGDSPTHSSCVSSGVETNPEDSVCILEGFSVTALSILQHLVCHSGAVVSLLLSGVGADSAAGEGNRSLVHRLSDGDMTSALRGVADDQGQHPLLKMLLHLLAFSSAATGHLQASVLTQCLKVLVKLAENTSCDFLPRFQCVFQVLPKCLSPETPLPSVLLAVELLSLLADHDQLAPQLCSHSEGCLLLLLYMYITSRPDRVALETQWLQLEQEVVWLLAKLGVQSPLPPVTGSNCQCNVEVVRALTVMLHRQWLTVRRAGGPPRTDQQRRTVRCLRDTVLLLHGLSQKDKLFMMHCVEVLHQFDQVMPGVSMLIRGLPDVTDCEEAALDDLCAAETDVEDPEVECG
ATR-interacting protein/Serine/threonine-protein kinase ATR, sequence (Q13535 whole entry): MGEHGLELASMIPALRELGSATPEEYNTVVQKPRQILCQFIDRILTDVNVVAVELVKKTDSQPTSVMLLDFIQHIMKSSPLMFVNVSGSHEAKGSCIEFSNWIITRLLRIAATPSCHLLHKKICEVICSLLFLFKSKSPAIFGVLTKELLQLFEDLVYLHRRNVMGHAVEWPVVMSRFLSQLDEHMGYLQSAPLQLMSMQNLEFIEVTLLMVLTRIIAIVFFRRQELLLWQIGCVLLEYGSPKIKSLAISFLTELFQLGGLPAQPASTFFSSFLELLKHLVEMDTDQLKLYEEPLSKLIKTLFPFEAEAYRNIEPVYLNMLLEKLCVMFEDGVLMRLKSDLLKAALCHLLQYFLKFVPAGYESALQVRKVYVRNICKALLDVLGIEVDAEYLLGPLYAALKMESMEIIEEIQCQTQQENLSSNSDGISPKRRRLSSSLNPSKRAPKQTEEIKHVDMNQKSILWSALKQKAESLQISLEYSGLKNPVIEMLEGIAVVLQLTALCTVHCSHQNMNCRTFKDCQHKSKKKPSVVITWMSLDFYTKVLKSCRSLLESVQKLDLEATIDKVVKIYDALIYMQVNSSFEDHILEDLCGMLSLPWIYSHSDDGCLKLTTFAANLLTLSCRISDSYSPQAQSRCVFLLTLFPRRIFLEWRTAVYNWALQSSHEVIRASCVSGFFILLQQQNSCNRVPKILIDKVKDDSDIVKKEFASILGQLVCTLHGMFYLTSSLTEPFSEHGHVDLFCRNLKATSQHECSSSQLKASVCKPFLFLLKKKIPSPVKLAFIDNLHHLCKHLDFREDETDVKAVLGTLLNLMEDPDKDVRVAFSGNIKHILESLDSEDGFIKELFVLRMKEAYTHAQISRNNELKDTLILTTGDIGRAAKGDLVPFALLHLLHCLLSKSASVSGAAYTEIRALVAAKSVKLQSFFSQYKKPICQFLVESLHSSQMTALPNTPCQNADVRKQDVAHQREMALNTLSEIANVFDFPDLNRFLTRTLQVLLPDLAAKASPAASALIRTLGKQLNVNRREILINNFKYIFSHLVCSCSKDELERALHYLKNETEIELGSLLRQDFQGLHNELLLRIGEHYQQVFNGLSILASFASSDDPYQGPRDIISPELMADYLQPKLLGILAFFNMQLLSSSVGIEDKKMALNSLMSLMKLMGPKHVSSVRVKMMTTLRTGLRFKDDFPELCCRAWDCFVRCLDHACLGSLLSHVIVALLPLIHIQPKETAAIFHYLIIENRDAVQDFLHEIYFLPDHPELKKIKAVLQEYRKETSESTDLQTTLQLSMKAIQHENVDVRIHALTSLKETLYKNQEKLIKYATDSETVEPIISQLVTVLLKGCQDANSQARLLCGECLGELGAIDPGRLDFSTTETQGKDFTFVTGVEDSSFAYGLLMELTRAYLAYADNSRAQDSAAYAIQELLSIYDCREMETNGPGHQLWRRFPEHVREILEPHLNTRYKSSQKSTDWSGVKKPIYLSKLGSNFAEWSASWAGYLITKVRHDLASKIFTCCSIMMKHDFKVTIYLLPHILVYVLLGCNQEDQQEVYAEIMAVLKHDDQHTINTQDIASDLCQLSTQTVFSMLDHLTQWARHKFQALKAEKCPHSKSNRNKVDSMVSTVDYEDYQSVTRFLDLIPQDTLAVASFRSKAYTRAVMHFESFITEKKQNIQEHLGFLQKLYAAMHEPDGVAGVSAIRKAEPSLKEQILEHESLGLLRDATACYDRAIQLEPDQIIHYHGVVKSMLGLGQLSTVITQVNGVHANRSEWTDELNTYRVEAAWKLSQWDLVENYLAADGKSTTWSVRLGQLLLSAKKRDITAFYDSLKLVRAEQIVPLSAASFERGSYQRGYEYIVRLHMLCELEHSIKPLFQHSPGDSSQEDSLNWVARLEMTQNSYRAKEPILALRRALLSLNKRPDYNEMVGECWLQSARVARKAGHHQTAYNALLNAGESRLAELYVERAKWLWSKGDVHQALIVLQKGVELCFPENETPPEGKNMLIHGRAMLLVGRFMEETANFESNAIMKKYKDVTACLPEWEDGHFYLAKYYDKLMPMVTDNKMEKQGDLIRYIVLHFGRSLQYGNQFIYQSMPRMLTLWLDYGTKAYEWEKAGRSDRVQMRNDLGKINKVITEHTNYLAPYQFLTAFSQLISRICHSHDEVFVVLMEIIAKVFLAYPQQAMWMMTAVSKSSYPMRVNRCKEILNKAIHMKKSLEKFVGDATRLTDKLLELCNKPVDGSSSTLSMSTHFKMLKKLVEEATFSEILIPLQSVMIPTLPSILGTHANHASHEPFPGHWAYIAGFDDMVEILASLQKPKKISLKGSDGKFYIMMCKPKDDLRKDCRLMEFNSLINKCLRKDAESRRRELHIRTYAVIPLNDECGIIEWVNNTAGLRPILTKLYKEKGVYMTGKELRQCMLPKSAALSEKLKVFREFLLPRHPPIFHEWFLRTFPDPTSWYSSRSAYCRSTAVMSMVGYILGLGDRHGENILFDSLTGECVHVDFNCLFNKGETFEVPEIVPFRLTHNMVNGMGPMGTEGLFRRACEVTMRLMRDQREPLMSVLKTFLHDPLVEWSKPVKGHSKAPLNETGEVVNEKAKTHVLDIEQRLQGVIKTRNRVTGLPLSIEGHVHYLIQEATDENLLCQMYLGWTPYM

`C[C@@H]1COCCN1c1cc(C2CCS(=O)(=O)CC2)c2c(n1)c(-c1ccn[nH]1)nn2C` [US12371430, Compound 82] had an IC50 of 800 pM.

These data come from BindingDB's records for patent US12371430 (Merck Patent, 2025).
